# Laboratory results published in US20240226049A1, “METHODS OF TREATMENT USING BEMPEDOIC ACID” (Esperion Therapeutics, Inc., priority 2023, published 2024).
# “And” between values parts separate entries of the source, which are not always exact repeats. Equal entries are not always repeated.
# System: primary prevention patients unable to tolerate recommended doses of statins
# Assay: CLEAR OUTCOMES primary prevention subgroup (Example 2): time-to-event efficacy end points
# Type: in vivo, human
# Protocol: The rationale, design and methods of the CLEAR Outcomes trial is described in Example 1. The trial was conducted at 1250 sites in 32 countries and designed by the Cleveland Clinic Coordinating Center for Clinical Research (C5Research) and an academic Executive Committee in collaboration with the sponsor. The protocol was approved by ethics committees at participating sites and all patients provided written informed consent before enrollment. A contract research organization collected the data which were transferred to C5Research at completion of the trial whose statisticians conducted the analyses described herein. An independent Data Monitoring Committee monitored the trial.
# Primary prevention patients 18 to 85 years of age with an LDL cholesterol ≥100 mg/dL with clinical features placing them at high risk for a first cardiovascular event were eligible. Criteria for high cardiovascular risk included risk scores, such as the Reynolds Risk Score and the SCORE project (Ridker et al., Development and validation of improved algorithms for the assessment of global cardiovascular risk in women: the Reynolds Risk Score, JAMA. 2007 Feb. 14; 297(6):611-9; Ridker et al., C-reactive protein and parental history improve global cardiovascular risk prediction. The Reynolds Risk Score for men, Circulation. 2008; 118: 2243-2251; European Guidelines on CVD Prevention in Clinical Practice. 2016. Eur J Prev Cardiol. 2016 July; 23(11):NP1-NP96), a coronary artery calcium score >400 Agatston units (AU) or presence of either type 1 or 2 diabetes in women aged >65 years or men older than 60 years.
# Investigators were responsible for assessing the patient for statin intolerance. Patients had to report statin intolerance due to an adverse effect that started or increased during statin therapy and resolved or improved after statin therapy was discontinued. Entry criteria required inability to tolerate 2 or more statins at any dose or 1 statin and unwillingness to attempt a second statin or advised by a physician not to attempt taking a second statin. Both the patient and site investigator were required to provide written confirmation that the patient was statin intolerant and aware of the benefits of statins to reduce the risk of cardiovascular events, including death, and acknowledge that many patients who are unable to tolerate a statin can tolerate a different statin or dose. Patients could be enrolled if they tolerated a very low average daily statin dose defined as rosuvastatin <5 mg, atorvastatin <10 mg, simvastatin <10 mg, lovastatin <20 mg, pravastatin <40 mg, fluvastatin <40 mg, or pitavastatin <2 mg. Other background lipid-lowering therapies were permitted, including ezetimibe, niacin, bile acid resins, fibrates, and/or proprotein convertase subtilisin kexin type 9 (PCSK9) inhibitors.
# Eligible patients entered a 4-week run-in period during which patients were treated with single-blind placebo. If patients were intolerant to placebo treatment or if adherence was <80% by tablet count, they were not eligible for randomization. Patients who successfully completed the run-in period were randomly assigned in a 1:1 ratio to receive a 180 mg oral dose of bempedoic acid or matching placebo, administered daily. During the trial, LDL cholesterol and hsCRP results were masked. Beginning 6 months after randomization, the central laboratory notified the investigator, who remained blinded to treatment assignment, if the patient's LDL cholesterol level was ≥25% higher than baseline. Repeat testing was performed after the patient was counseled about diet and encouraged to take all medications as prescribed. The patient returned for a repeat fasting blood lipid profile to confirm whether the LDL cholesterol value exceeded the threshold criteria. If confirmed, the patient's treatment regimen for LDL cholesterol lowering could be adjusted, per standard of care and local practice. […]
# [1] = primary prevention patients, 180 mg oral daily, N = 2100
# [2] = vs placebo, primary prevention, adjusted for baseline characteristics
# [3] = vs placebo, primary prevention, adjusted for baseline characteristics, listed as bempedoic acid
# [4] = vs placebo, primary prevention, unadjusted
smiles,measurement,setting,value
"CC(C)(CCCCCC(O)CCCCCC(C)(C)C(=O)O)C(=O)O [Bempedoic Acid, Bempedoic acid]","3-component MACE, % of patients",[1],4.0%
same,"3-component MACE, number of patients",[1],83 number of patients
same,"5-component MACE, % of patients",[1],5.3%
same,"5-component MACE, number of patients",[1],112 number of patients
same,"All-cause mortality, % of patients",[1],3.6%
same,"All-cause mortality, number of patients",[1],75 number of patients
same,"Cardiovascular death, % of patients",[1],1.8%
same,"Cardiovascular death, number of patients",[1],37 number of patients
same,"Coronary revascularization, % of patients",[1],2.4%
same,"Coronary revascularization, number of patients",[1],50 number of patients
same,"Fatal and non-fatal MI, % of patients",[1],1.4%
same,"Fatal and non-fatal MI, number of patients",[1],29 number of patients
same,"Fatal and non-fatal stroke, % of patients",[1],1.3%
same,"Fatal and non-fatal stroke, number of patients",[1],27 number of patients
same,"Hospitalization for unstable angina, % of patients",[1],0.5%
same,"Hospitalization for unstable angina, number of patients",[1],10 number of patients
same,"Primary efficacy endpoint (MACE-4), % of patients",[1],5.3%
same,"Primary efficacy endpoint (MACE-4), number of patients",[1],111 number of patients
same,number need to treat (NNT) to prevent one primary composite outcome,"primary prevention patients, 4-component MACE",43 patients
same,effect on stroke and coronary revascularization,"primary prevention patients, vs placebo",not significantly reduced
same,"3-component MACE, Hazard Ratio (95% CI), adjusted",[2],0.64 (0.48-0.84)
same,"5-component MACE, Hazard Ratio (95% CI), adjusted",[2],0.69 (0.54-0.88)
same,"All-cause mortality, Hazard Ratio (95% CI), adjusted",[2],0.73 (0.54-0.98)
same,"Cardiovascular death, Hazard Ratio (95% CI), adjusted",[2],0.61 (0.41-0.92)
same,"Coronary revascularization, Hazard Ratio (95% CI), adjusted",[2],0.71 and 0.71 (0.49-1.03)
same,"Fatal and non-fatal MI, Hazard Ratio (95% CI), adjusted",[2],0.61 (0.39-0.98)
same,"Fatal and non-fatal stroke, Hazard Ratio (95% CI), adjusted",[2],0.76 (0.46-1.26)
same,"Hospitalization for unstable angina, Hazard Ratio (95% CI), adjusted",[2],0.58 (0.26-1.27)
same,"Primary efficacy endpoint (MACE-4), Hazard Ratio (95% CI), adjusted",[2],0.70 (0.55-0.89)
same,"3-component MACE, Hazard Ratio (95% CI), adjusted",[3],0.64
same,"5-component MACE, Hazard Ratio (95% CI), adjusted",[3],0.69
same,"All-cause mortality, Hazard Ratio (95% CI), adjusted",[3],0.73
same,"Cardiovascular death, Hazard Ratio (95% CI), adjusted",[3],0.61
same,"Fatal and non-fatal MI, Hazard Ratio (95% CI), adjusted",[3],0.61
same,"Fatal and non-fatal stroke, Hazard Ratio (95% CI), adjusted",[3],0.76
same,"Hospitalization for unstable angina, Hazard Ratio (95% CI), adjusted",[3],0.58
same,"Primary efficacy endpoint (MACE-4), Hazard Ratio (95% CI), adjusted",[3],0.70
same,"3-component MACE, Hazard Ratio (95% CI), unadjusted",[4],0.61 (0.46-0.80)
same,"5-component MACE, Hazard Ratio (95% CI), unadjusted",[4],0.67 (0.53-0.86)
same,"All-cause mortality, Hazard Ratio (95% CI), unadjusted",[4],0.69 (0.51-0.92)
same,"Coronary revascularization, Hazard Ratio (95% CI), unadjusted",[4],0.73 (0.50-1.05)
same,"Death from cardiovascular causes, Hazard Ratio (95% CI), unadjusted",[4],0.57 (0.38-0.85)
same,"Fatal and non-fatal MI, Hazard Ratio (95% CI), unadjusted",[4],0.61 (0.38-0.97)
same,"Fatal and non-fatal stroke, Hazard Ratio (95% CI), unadjusted",[4],0.72 (0.44-1.19)
same,"Hospitalization for unstable angina, Hazard Ratio (95% CI), unadjusted",[4],0.58 (0.27-1.27)
same,"Primary efficacy endpoint (MACE-4), Hazard Ratio (95% CI), unadjusted",[4],0.68 (0.53-0.87)
